Results: patent publication US20220395490A1, “TREATMENT OF ARTHRITIS” (Inflazome Limited, priority 2019, published 2022)
Read-outs that look alike come from different tables or passages of the source.

Legend:
[1] = tested on: MSU-induced knee inflammation (gout) in male Wistar rats; assay type: in vivo; conditions: for left knee diameter on DAY 3: vehicle group 15.0 mm; for response to mechanical allodynia on DAY 3: vehicle group 5.8; for reduction in the MSU-induced edema and pain: daily
Procedure: To determine the oral anti-inflammatory and anti-nociceptive efficacy of therapeutic treatment with the compound of formula (I) in a rodent model MSU-induced knee inflammation (gout) in male Wistar rats.
300 mg MSU crystal were suspended in 7.5 ml PBS (Sigma, Cat. D8662, lot. RNBG0405, exp. April 2019) to prepare a 40 mg/ml suspension. Material was kept in a sonicating water bath to maintain homogeneous suspension between injections. The rats were weighed.
The rats were anesthetized (SOP 1810), knees were shaved, and injected into the left knee with 50 μl MSU (2 mg) crystals using a 25 G needle fitted to a 1 ml syringe.
Group 1=PBS (Sigma, Cat. D8662, lot RNBG0405, exp. […]). Dosed at 1 ml/kg, PO.
Group 3=37 mg of the compound of formula (I) was dissolved in 3.7 ml PBS to prepare a 10 mg/ml solution. Dosed at 1 ml/kg, PO.
Test materials were made fresh daily. All rats were weighed and dosed by intraperitoneal injection or orally. Mechanical allodynia responses and knee diameters were recorded one hour post dosing.
On DAY 3, four hours after dosing, the rats were anesthetized and exsanguinated into pre-chilled K2 EDTA vacutainer tubes (Becton Dickinson, Cat. 367844, lot 6253682, exp. Jan. 31, 2018). The blood was processed to plasma, gently mixed and centrifuged at 4° C. 1800g for 10 minutes not later than 20 minutes from blood collection, which was stored in two 90 μl minimum volume and four 20 μl aliquots were prepared in labeled eppendorf tubes, and immediately stored frozen at −80° C. The carcasses were disposed of appropriately.

[2] = tested on: MSU-induced knee inflammation (gout) in male Wistar rats; assay: Prophylactic efficacy in rodent model of MSU-induced knee inflammation (gout); assay type: in vivo; conditions: for effect on pain associated with MSU-induced knee edema (mechanical allodynia, von Frey) / inhibition of the MSU-stimulated knee edema: 10 mg/kg once daily oral
Procedure: To determine the oral anti-inflammatory and anti-nociceptive efficacy of prophylactic treatment with the compound of formula (I) in a rodent model MSU-induced knee inflammation (gout) in male Wistar rats.
A. Preparation of MSU crystals: • 1. 4 g uric acid was dissolved in 800 ml 0.03 N NaOH and heated to 60° C. NaOH was added as required to maintain pH 8.9. The solution was stored overnight at 4-8° C. • 2. Crystals were filtered, washed and dried. • 3. Crystals were suspended in sterile saline just prior to use.
B. Efficacy Study: • 1. […] DAY −1. Baseline readings were taken
Baseline knee diameters were measured by digital caliper.
Baseline responses to mechanical allodynia, as measured by von Frey fibres, were recorded. • 3. DAY 0:
a. The rats were weighed and dosed by oral gavage with vehicle, prednisolone (10 mg/kg) or the compound of formula (I) (1, 3 or 10 mg/kg)
b. One hour after dosing, rats in Groups 1-5 were anesthetized and injected IA into the left knee with 2 mg MSU in 50 μl saline. • 4. DAY 1:
a. Rats were weighed and dosed as on DAY 0.
b. One hour after dosing, mechanical allodynia and knee diameters were measured and recorded. • 5. DAY 2:
b. One hour after dosing, mechanical allodynia and knee diameters were measured and recorded.
c. Four hours after final dosing, terminal bleeds were collected.

[3] = 1 mg/kg (Group 5) once daily oral, starting one hour prior to intra-articular 2 mg MSU
[4] = starting one hour prior to intra-articular 2 mg MSU

Row | Compound | left knee diameter on DAY 3 ([1]; 10 mg/kg PO once daily Day 1-3 after 2 mg MSU, baseline 12.3 mm) [mm] | response to mechanical allodynia on DAY 3 ([1]; 10 mg/kg PO once daily Day 1-3 after 2 mg MSU, baseline 14.5) | reduction in the MSU-induced edema and pain ([1]; 10 mg/kg orally) | reduction of knee edema [2, 3] [%] | reduction of pain response (mechanical allodynia) [2, 3] [%] | efficacy of intermediate dose compared with high dose (10 mg/kg) ([2]; 3 mg/kg (Group 4) once daily oral) | effect on pain associated with MSU-induced knee edema (mechanical allodynia, von Frey) [2, 4] | inhibition of the MSU-stimulated knee edema [2, 4] [%] | inhibition of the MSU-stimulated response across doses ([2]; once daily oral 1, 3, 10 mg/kg) | effect on animal weight ([2]; sodium salt in PBS, once daily oral, 1, 3 or 10 mg/kg) | effect on animal weight ([2]; prednisolone 10 mg/kg once daily oral) | left knee diameter on DAY 3 ([1]; Anakinra 50 mg/kg IP once daily Day 1-3 after 2 mg MSU, baseline 12.4 mm) [mm] | response to mechanical allodynia on DAY 3 ([1]; Anakinra 50 mg/kg IP once daily Day 1-3 after 2 mg MSU, baseline 13.9) | reduction in the MSU-induced edema and pain ([1]; Anakinra 50 mg/kg by peritoneal injection) | effect on animal health ([1]; rat, in vivo, ip)
1 | CC(C)n1ccc(S(=O)(=O)NC(=O)Nc2c3c(cc4c2CCC4)CCC3)n1 [compound of formula (I)] | 13.6 | 12.5 grams of pressure | significant reduction | 34 | 66 | no significant difference | complete blockade | 49 | significant dose-dependent inhibition | no significant effect | – | – | – | – | –
2 | C[C@]12C=CC(=O)C=C1CC[C@@H]1[C@@H]2[C@@H](O)C[C@@]2(C)[C@H]1CC[C@]2(O)C(=O)CO [prednisolone, reference compound] | – | – | – | – | – | – | significant insensitivity to pain | 52 | – | – | no significant effect | – | – | – | –
3 | Anakinra | – | – | – | – | – | – | – | – | – | – | – | 14.0 | 9.0 grams of pressure | significant reduction | no effect
